The values that follow come from US9303035B2, “Substituted pyrazino[1′,2′:1,2]pyrrolo[3,4-d]pyrimidines, pyrimido[4′,5′:3,4]pyrrolo[2,1-c][1,4]oxazines and pyrimido[4′,5′:3,4]pyrrolo[1,2-d][1,4]oxazepines for inhibiting the CFTR channel” (Novartis AG, priority 2012, dated 2016).

One may read the IC50 as the concentration that inhibits the measured activity by half. The low end stands for greater potency, the high end for weaker potency.

CFTR (WT-CFTR channels stably expressed in CHO cells), sequence (P13569 whole entry): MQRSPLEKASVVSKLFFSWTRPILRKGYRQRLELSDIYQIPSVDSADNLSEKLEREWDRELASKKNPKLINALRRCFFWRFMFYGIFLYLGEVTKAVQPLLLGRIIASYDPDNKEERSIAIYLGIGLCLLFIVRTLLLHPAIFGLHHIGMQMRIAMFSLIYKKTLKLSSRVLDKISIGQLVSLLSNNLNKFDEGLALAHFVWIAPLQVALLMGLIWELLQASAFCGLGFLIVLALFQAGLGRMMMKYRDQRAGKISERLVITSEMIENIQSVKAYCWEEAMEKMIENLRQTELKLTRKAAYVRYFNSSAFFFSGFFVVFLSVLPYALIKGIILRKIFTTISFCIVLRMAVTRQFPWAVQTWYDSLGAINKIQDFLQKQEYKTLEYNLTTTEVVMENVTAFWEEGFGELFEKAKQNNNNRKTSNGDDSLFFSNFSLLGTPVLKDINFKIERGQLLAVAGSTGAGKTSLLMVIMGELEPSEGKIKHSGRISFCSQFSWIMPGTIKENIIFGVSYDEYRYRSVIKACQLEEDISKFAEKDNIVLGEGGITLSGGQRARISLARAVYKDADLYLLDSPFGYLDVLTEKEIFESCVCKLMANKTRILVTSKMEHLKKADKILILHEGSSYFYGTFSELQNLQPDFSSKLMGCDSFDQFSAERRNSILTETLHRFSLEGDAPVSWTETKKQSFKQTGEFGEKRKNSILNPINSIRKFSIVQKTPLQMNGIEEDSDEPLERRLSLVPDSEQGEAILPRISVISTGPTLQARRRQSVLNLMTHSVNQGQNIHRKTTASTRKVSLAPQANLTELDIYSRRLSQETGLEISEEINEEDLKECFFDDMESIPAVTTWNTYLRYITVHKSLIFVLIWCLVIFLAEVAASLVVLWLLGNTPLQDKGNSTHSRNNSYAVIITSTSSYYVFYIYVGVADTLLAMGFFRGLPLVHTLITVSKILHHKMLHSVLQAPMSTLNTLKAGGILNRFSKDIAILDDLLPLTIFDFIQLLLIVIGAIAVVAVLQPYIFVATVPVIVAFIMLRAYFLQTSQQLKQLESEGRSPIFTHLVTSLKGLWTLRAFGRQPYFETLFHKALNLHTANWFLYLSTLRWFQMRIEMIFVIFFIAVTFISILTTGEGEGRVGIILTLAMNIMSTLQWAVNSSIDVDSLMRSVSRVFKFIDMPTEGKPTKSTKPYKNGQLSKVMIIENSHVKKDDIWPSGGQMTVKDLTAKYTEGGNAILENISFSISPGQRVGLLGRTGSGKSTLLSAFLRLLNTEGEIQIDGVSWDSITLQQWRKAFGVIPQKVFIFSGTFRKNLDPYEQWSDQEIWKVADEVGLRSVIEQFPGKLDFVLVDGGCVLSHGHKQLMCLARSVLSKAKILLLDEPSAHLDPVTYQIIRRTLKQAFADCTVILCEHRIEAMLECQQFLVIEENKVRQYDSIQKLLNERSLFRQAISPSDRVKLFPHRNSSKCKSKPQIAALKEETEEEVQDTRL

This assay concerns the target CFTR (WT-CFTR channels stably expressed in CHO cells) (Homo sapiens (Human), UniProt P13569). The assay can be described thus: IonWorks Quattro CFTR inhibitor assay (whole-cell population patch clamp, forskolin-activated current). The note with it: inward current (−100 mV); CHO cells stably expressing WT-CFTR; CFTR activated with 10 μM forskolin; 10 min compound incubation. The class given is cell-based. From the text: CFTR activity can be quantified by electrophysiology methods, using the whole-cell configuration of the patch clamp technique (Hamill O, Marty A, Neher E, Sakmann B and Sigworth F. ‘Improved patch-clamp techniques for high resolution current recording from cells and cell-free membrane patches.’ Pflugers Archive 1981 391: 85-100). This assay directly measures the currents associated with chloride flow through CFTR channels whilst either maintaining or adjusting the transmembrane voltage. This assay can use either single glass micropipettes or parallel planar arrays to measure CFTR activity from native or recombinant cell systems. Currents measured using parallel planar arrays can be quantified using an appropriately equipped instrument such as the IonWorks Quattro (Molecular Devices Corporation, Sunnyvale, Calif.). The Quattro system can measure CFTR currents from either a single cell per recording well (HT configuration) or alternatively from a population of 64 cells per well (Population Patch Clamp PPC) (Finkel A, Wittel A, Yang N, Handran S, Hughes J, Costantin J. ‘Population patch clamp improves data consistency and success rates in the measurement of ionic currents.’ J Biomol Screen. 2006 August; 11(5):488-96).
Chinese hamster ovary (CHO) cells stably expressing WT-CFTR channels were used for the IonWorks Quattro experiments. Cells were maintained at 37° C. in 5% v/v CO2 at 100% humidity in MEM alpha medium supplemented with 10% (v/v) FCS, 100 U/mL Penicillin/Streptomycin, and 100 μg/L methotrexate. For experiments, cells were grown in 225 cm^2 tissue culture flasks until almost confluent. Cells were removed from the flask using trypsin-EDTA and resuspended in extracellular recording solution for immediate experimentation.
Cells, at a density of 1.5-2 million per mL, were placed on the Quattro system, added to the planar patch plate and seals allowed to establish for 5-10 mins. After assessing seal resistances (typically >50 MΩ), whole-cell access was obtained by perforation with 100 μg/mL amphotericin B. Baseline currents were measured by a pre-compound scan obtained by application of a voltage ramp from −100 to +100 mV. CFTR was activated by the addition of 10 μM forskolin to each of the 384 wells of the patch plate. After 5 min incubation the post-compound 1 currents were measured, again by application of a voltage ramp from −100 to +100 mV. Test compounds, diluted from 10 mM stocks in DMSO in extracellular solution were then added to the patch plate and were incubated for a further 10 min. The post-compound 2 currents were measured by the application of the same voltage ramp from −100 to +100 mV. The inhibition of CFTR was determined from the difference in current between the forskolin addition (post-compound 1) and the test compound (post-compound 2). This was determined at both −100 mV and +100 mV which represents the inward and outward current respectively.
Extracellular solution (ECS): 145 mM NaCl, 4 mM CsCl, 5 mM D-glucose, 10 mM TES, 1 mM CaCl2, 1 mM MgCl2, pH 7.4 NaOH
Intracellular solution (ICS): 113 mM L-Aspartic acid, 113 mM CsOH, 27 mM CsCl, 1 mM NaCl, 1 mM MgCl2, 1 mM EGTA, 10 mM TES. pH 7.2 with CsOH. Filter sterilized before use.
On the technique in general: The patch-clamp technique gives a direct electrical read-out from membranes.
`Cc1csc(-c2c3c(=O)n(C)c(=O)n(C)c3c3n2C[C@H](CO)O[C@H]3c2ccc(Cl)o2)n1` (stereo in doubt) [Example 7.0a, 10-(5-chlorofuran-2-yl)-8-(hydroxymethyl)-1,3-dimethyl-5-(4-methylthiazol-2-yl)-7,8-dihydro-1H-pyrimido[4′,5′:3,4]pyrrolo[2,1-c][1,4]oxazine-2,4(3H,10H)-dione] gave an IC50 of 0.09 µM. To `Cn1c(=O)c2c(-c3cccc(Cl)c3)n3c(c2n(C)c1=O)[C@H](c1nc(Cl)cs1)O[C@@H](CO)C3` (stereo in doubt) [Example 8.0a, 5-(3-Chlorophenyl)-10-(4-chlorothiazol-2-yl)-8-(hydroxymethyl)-1,3-dimethyl-7,8-dihydro-1H-pyrimido[4′,5′:3,4]pyrrolo[2,1-c][1,4]oxazine-2,4(3H,10H)-dione] belongs 0.07 µM; to `Cn1c(=O)c2c(-c3cccc(Cl)c3)n3c(c2n(C)c1=O)[C@H](c1ccc(Cl)o1)O[C@@H](CO)C3` (stereo in doubt) [Example 8.1a, 10-(5-Chlorofuran-2-yl)-5-(3-chlorophenyl)-8-(hydroxymethyl)-1,3-dimethyl-7,8-dihydro-1H-pyrimido[4′,5′:3,4]pyrrolo[2,1-c][1,4]oxazine-2,4(3H,10H)-dione], 0.12 µM.

For `Cc1cccc(-c2c3c(=O)n(C)c(=O)n(C)c3c3n2C[C@H](C)O[C@H]3c2ccc(Cl)o2)c1` (stereo in doubt) [Example 12.1, 10-(5-chlorofuran-2-yl)-1,3,8-trimethyl-5-(m-tolyl)-7,8-dihydro-1H-pyrimido[4′,5′:3,4]pyrrolo[2,1-c][1,4]oxazine-2,4(3H,10H)-dione], the concentration for half-maximal inhibition (IC50) is 5.07 µM. `COC[C@@H]1Cn2c(-c3cccc(Cl)c3)c3c(=O)n(C)c(=O)n(C)c3c2[C@H](c2ccc(Cl)o2)O1` (stereo in doubt) [Example 12.2, 10-(5-chlorofuran-2-yl)-5-(3-chlorophenyl)-8-(methoxymethyl)-1,3-dimethyl-7,8-dihydro-1H-pyrimido[4′,5′:3,4]pyrrolo[2,1-c][1,4]oxazine-2,4(3H,10H)-dione]: the IC50 came to 0.24 µM. This IC50 is about 21-fold lower than that of the compound before. To `CN(C)C[C@@H]1Cn2c(-c3cccc(Cl)c3)c3c(=O)n(C)c(=O)n(C)c3c2[C@H](c2ccc(Cl)o2)O1` (stereo in doubt) [Example 12.4, 10-(5-chlorofuran-2-yl)-5-(3-chlorophenyl)-8-((dimethylamino)methyl)-1,3-dimethyl-7,8-dihydro-1H-pyrimido[4′,5′:3,4]pyrrolo[2,1-c][1,4]oxazine-2,4(3H,10H)-dione] belongs 0.54 µM. For the compound `Cc1ccc([C@@H]2NCCn3c(-c4ccccc4)c4c(=O)n(C)c(=O)n(C)c4c32)o1` [Example 1.2, (R)-1,3-Dimethyl-10-(5-methylfuran-2-yl)-5-phenyl-7,8,9,10-tetrahydropyrazino[1′,2′:1,2]pyrrolo[3,4-d]pyrimidine-2,4(1H,3H)-dione], the midpoint of inhibition, the IC50, lay at 1.58 µM. The same measure for `Cn1c(=O)c2c(-c3ccccc3)n3c(c2n(C)c1=O)C(c1nccs1)NCC3` (stereo not drawn) [Example 1.7, 1,3-Dimethyl-5-phenyl-10-(thiazol-2-yl)-7,8,9,10-tetrahydropyrazino[1′,2′:1,2]pyrrolo[3,4-d]pyrimidine-2,4(1H,3H)-dione]: 5.42 µM. The same measure for `Cn1c(=O)c2c(-c3ccccc3)n3c(c2n(C)c1=O)C(c1nc(C(F)(F)F)cs1)NCC3` (stereo not drawn) [Example 1.9, 1,3-Dimethyl-5-phenyl-10-(4-(trifluoromethyl)thiazol-2-yl)-7,8,9,10-tetrahydropyrazino[1′,2′:1,2]pyrrolo[3,4-d]pyrimidine-2,4(1H,3H)-dione]: 6.31 µM; for `CCc1ccc(C2NCCn3c(-c4ccccc4)c4c(=O)n(C)c(=O)n(C)c4c32)o1` (stereo not drawn) [Example 1.10, 10-(5-Ethylfuran-2-yl)-1,3-dimethyl-5-phenyl-7,8,9,10-tetrahydropyrazino[1′,2′:1,2]pyrrolo[3,4-d]pyrimidine-2,4(1H,3H)-dione]: 6.37 µM; for `Cn1ccc(C2NCCn3c(-c4ccccc4)c4c(=O)n(C)c(=O)n(C)c4c32)n1` (stereo not drawn) [Example 1.12, 1,3-Dimethyl-10-(1-methyl-1H-pyrazol-3-yl)-5-phenyl-7,8,9,10-tetrahydropyrazino[1′,2′:1,2]pyrrolo[3,4-d]pyrimidine-2,4(1H,3H)-dione]: 10.8 µM. To `Cn1c(=O)c2c(-c3ccccc3)n3c(c2n(C)c1=O)C(c1cccc(F)c1F)NCC3` (stereo not drawn) [Example 1.14, 10-(2,3-Difluorophenyl)-1,3-dimethyl-5-phenyl-7,8,9,10-tetrahydropyrazino[1′,2′:1,2]pyrrolo[3,4-d]pyrimidine-2,4(1H,3H)-dione] belongs 11.5 µM; to `Cn1c(=O)c2c(-c3ccccc3)n3c(c2n(C)c1=O)C(C1CC=CCC1)NCC3` (stereo not drawn) [Example 1.17, 10-(Cyclohex-3-en-1-yl)-1,3-dimethyl-5-phenyl-7,8,9,10-tetrahydropyrazino[1′,2′:1,2]pyrrolo[3,4-d]pyrimidine-2,4(1H,3H)-dione], 18.1 µM; to `Cn1c(=O)c2c(-c3ccccc3)n3c(c2n(C)c1=O)C(c1ccc(Cl)cc1)NCC3` (stereo not drawn) [Example 1.23, 10-(4-Chlorophenyl)-1,3-dimethyl-5-phenyl-7,8,9,10-tetrahydropyrazino[1′,2′:1,2]pyrrolo[3,4-d]pyrimidine-2,4(1H,3H)-dione], 29.9 µM. As to `Cc1csc(-c2c3c(=O)n(C)c(=O)n(C)c3c3n2CCNC3c2ccc(Cl)o2)n1` (stereo not drawn) [Example 1.26, 10-(5-Chlorofuran-2-yl)-1,3-dimethyl-5-(4-methylthiazol-2-yl)-7,8,9,10-tetrahydropyrazino[1′,2′:1,2]pyrrolo[3,4-d]pyrimidine-2,4(1H,3H)-dione], the IC50 was found to be 1.9 µM.

In turn, `Cn1c(=O)c2c(-c3cccc(Cl)c3)n3c(c2n(C)c1=O)C(c1ccc(Cl)o1)NCC3` (stereo not drawn) [Example 3.1, 10-(5-Chlorofuran-2-yl)-5-(3-chlorophenyl)-1,3-dimethyl-7,8,9,10-tetrahydropyrazino[1′,2′:1,2]pyrrolo[3,4-d]pyrimidine-2,4(1H,3H)-dione] returned an IC50 of 0.7 µM. To `Cc1csc(C2NCCn3c(-c4cccc(Cl)c4)c4c(=O)n(C)c(=O)n(C)c4c32)n1` (stereo not drawn) [Example 3.2, 5-(3-Chlorophenyl)-1,3-dimethyl-10-(4-methylthiazol-2-yl)-7,8,9,10-tetrahydropyrazino[1′,2′:1,2]pyrrolo[3,4-d]pyrimidine-2,4(1H,3H)-dione] belongs 0.64 µM; to `Cc1cc(C)cc(-c2c3c(=O)n(C)c(=O)n(C)c3c3n2CCNC3c2ccc(Cl)o2)c1` (stereo not drawn) [Example 3.6, 10-(5-Chlorofuran-2-yl)-5-(3,5-dimethylphenyl)-1,3-dimethyl-7,8,9,10-tetrahydropyrazino[1′,2′:1,2]pyrrolo[3,4-d]pyrimidine-2,4(1H,3H)-dione], 8.26 µM. As for `Cc1csc(C2OC[C@@H](C)n3c(-c4ccccc4)c4c(=O)n(C)c(=O)n(C)c4c32)n1` (stereo partly drawn) [Example 5.1, (7R)-1,3,7-trimethyl-10-(4-methylthiazol-2-yl)-5-phenyl-7,8-dihydro-1H-pyrimido[4′,5′:3,4]pyrrolo[2,1-c][1,4]oxazine-2,4(3H,10H)-dione], the IC50 came to 3.24 µM. The same measure for `Cn1c(=O)c2c(-c3cccc(F)c3)n3c(c2n(C)c1=O)[C@H](c1ccc(Cl)o1)O[C@@H](CO)C3` [Example 6, (8R,10R)-10-(5-Chlorofuran-2-yl)-5-(3-fluorophenyl)-8-(hydroxymethyl)-1,3-dimethyl-7,8-dihydro-1H-pyrimido[4′,5′:3,4]pyrrolo[2,1-c][1,4]oxazine-2,4(3H,10H)-dione]: 0.05 µM; for `Cn1c(=O)c2c(-c3ccccc3)n3c(c2n(C)c1=O)[C@H](c1ccc(Cl)o1)N[C@@H](CO)C3` [Example 11a, 10-(5-Chlorofuran-2-yl)-8-(hydroxymethyl)-1,3-dimethyl-5-phenyl-7,8,9,10-tetrahydropyrazino[1′,2′:1,2]pyrrolo[3,4-d]pyrimidine-2,4(1H,3H)-dione]: 0.31 µM.
